Experimental findings from ChEMBL document CHEMBL1124787, “Conformationally constrained congeners of 6-aryl-5-methyl-4,5-dihydro-3(2H)-pyridazinones active on the cardiovascular system: conformational studies by molecular mechanics calculations and 1H NMR spectroscopy” (1990) are described below.

Calls of active or inactive are those of the source. The calls are words filed in the database; no cut-off is given here.

The test system of one assay is Mus musculus. The assay is described as follows: Antithrombotic activity after oral administration in mouse was measured as protection vs control percent. It counts as functional.
The species entered for another assay is Cavia porcellus. The assay is described as follows: Inotropic activity evaluated in vitro in spontaneously beating guinea pig atria;IA-Inactive. It counts as functional.
In the next assay the test system is Rattus norvegicus. The assay is described as follows: The dose (administered orally) that lowered blood pressure by 50 mmHg in conscious, spontaneously hypertensive rats (SHR) (peak effect); IA-Inactive. In kind it is functional, organism-based.

On to `CC(=O)Nc1ccc2c(c1)CC1CC(=O)NN=C21` (stereo not given), for which the Activity in the assay with Mus musculus is 100.
`CC(=O)Nc1ccc2c(c1)CCCC1CC(=O)NN=C21` (stereo not given) gave an Activity in the assay with Mus musculus of 46. The pD2 entry in the assay listed under Cavia porcellus was “inactive”. Further, the ED50 entry in the assay on Rattus norvegicus was “inactive”.
Compound `Nc1ccc2c(c1)CC1CC(=O)NN=C21` (stereo not given) showed an Activity with Mus musculus of 87.
Compound `Nc1ccc2c(c1)CCCC1CC(=O)NN=C21` (stereo not given) came in with an Activity with Mus musculus of 45. Further, the pD2 entry in the assay filed under Cavia porcellus was “inactive”. In addition, in the assay on Rattus norvegicus, the ED50 result is “inactive”.
On to `CC(=O)Nc1ccc2c(c1)CCC1CC(=O)NN=C21` (stereo not given), for which, in the assay on Mus musculus, the Activity is given as 100.
The same measure, in the same setting: next, `Nc1ccc2c(c1)CCC1CC(=O)NN=C21` (stereo not given): 73.
